Measurements taken from patent US20100152200A1, “[…] USES THEREOF” (priority 2008, published 2010).
Where two headings read alike, the source gives them in different places.

What was measured:
WEEV replicon pWR-LUC = experiment: organism not typed; assay type: cell-based
WEEV = assay type: cell-based, WEEV strain Cba87
SINV = settings: 12.5 µM
FMV [1] = assay type: cell-based, Fort Morgan virus (FMV) strain CM4-146
EEEV replicon = assay type: cell-based
VEEV replicon = assay type: cell-based
FMV [2] = assay type: cell-based, Fort Morgan virus (FMV) strain CM4-146; remark: listed apart in the source
BSR-T7/5 cells = experiment: Toxicity studies (MTT or Alamar Blue cell viability) in the pWR-LUC:BSR-T7/5 system; settings: for toxicity:activity (T:A) ratio (CC50/IC1050): pWR-LUC:BSR-T7/5 system
FMV [3] = tested on: FMV

Row | Structure (SMILES) | suppression of fLUC expression (WEEV replicon pWR-LUC) | reduction of accumulation of viral RNAs encoding nsP2 or E1 (WEEV) | cell viability of SINV-infected cells (SINV) [%] | reduction of accumulation of viral RNAs encoding nsP2 or E1 (FMV [1]) | activity against EEEV replicon (in words) (EEEV replicon) | activity against VEEV replicon (in words) (VEEV replicon) | IC50 (WEEV replicon pWR-LUC; read-out: IC50) [µM] | suppression of infectious FMV production (FMV [2]) [%] | cytotoxicity (in words) (BSR-T7/5 cells; FIG. 2 dose-response, BSR-T7/5 cells transfected with pWR-LUC) | toxicity:activity (T:A) ratio (CC50/IC1050) (BSR-T7/5 cells) | concentration effectively suppressing FMV-induced CPE (lowest concentration tested) (FMV [3]) [µM] | cell viability of FMV-infected cells (FMV [3]; 12.5 µM) [%] | IC50 (WEEV replicon pWR-LUC; BSR-T7/5) [µM]
1 | COc1c(C)c2c(c(O)c1C/C=C(\C)CCC(=O)O)C(=O)OC2 [mycophenolic acid] | approximately 80% | – | – | – | – | – | – | – | – | – | – | – | –
2 | O=C(NCc1ccco1)C1CCN(C(=O)c2cc3sccc3n2Cc2ccc(F)cc2)CC1 [Compound 32091] | – | 80-90% | 50 | 80-90% | broad activity | broad activity | 9.3 | > 90 | minimal cytotoxicity | greater than 20 | ≤ 3 | 70 | –
3 | NC(=O)c1ncn([C@@H]2O[C@H](CO)[C@@H](O)[C@H]2O)n1 [ribavirin] | approximately 80% | – | – | – | – | – | – | – | – | 19 | – | – | 16
